The values below come from patent US8431140B2, “Topical compositions” (priority 2006, dated 2013).

Data set [1] in a line: Flux of acyclovir gels with different drug concentrations (saturation flux comparison). Format: in vitro ADME. To be noted: in the vehicle of Table 10a.
For data set [2] the following is noted: intravenous administration of 7.5-10 mg three times daily; cited from earlier work.

Take `Nc1nc2c(ncn2COCCO)c(=O)[nH]1` [acyclovir]: the “Acyclovir concentration giving a saturated formulation post-evaporation” value in data set [1] is reported as 0.06 % (w/w). In addition, the “Serum concentrations of acyclovir” value in data set [2] was 5000 to 10000 ng/mL.
